Test results reported in ChEMBL document CHEMBL1125280, “Direct prediction of dissociation constants (pKa's) of clonidine-like imidazolines, 2-substituted imidazoles, and 1-methyl-2-substituted-imidazoles from 3D structures using a comparative molecular field analysis (CoMFA) approach” (J Med Chem, 1991).

test: Ionization constant (pKa); type: physicochemical

First: CSc1ncc[nH]1
Second: Fc1ncc[nH]1
The pKa of the first is higher: 5.95 for the first, 2.4 for the second.

Going from `COc1cc(Cl)c(N=C2NCCN2)c(Cl)c1` to `Cc1cc(Cl)c(N=C2NCCN2)c(Cl)c1`, the pKa falls from 8.57 to 8.29.

Compared with `O=[N+]([O-])c1cc(Cl)c(N=C2NCCN2)c(Cl)c1`, `Clc1cc(Br)cc(Cl)c1N=C1NCCN1` is higher in pKa: 6.86 for the first, 7.72 for the second.

Going from `Cc1ccc(NC2=NCCN2)c(Cl)c1` [TOLONIDINE] to `c1ccc(NC2=NCCN2)cc1`, the pKa rises from 9.41 to 10.1.

Compared with `c1ccn(-c2ncc[nH]2)c1`, `c1ccc(-c2ncc[nH]2)cc1` [2-PHENYLIMIDAZOLE] is higher in pKa: 5.36 for the first, 6.48 for the second.

`CCc1cccc(CC)c1NC1=NCCN1` and `Cc1cccc(C)c1N=C1NCCN1` are within 0.2 log units of each other in pKa: 10.6 for the first, 10.5 for the second.

First: Cc1cccc(Cl)c1N=C1NCCN1
Second: Clc1cccc(Br)c1N=C1NCCN1
The pKa of the first is higher: 9.4 for the first, 7.93 for the second.

First: Cc1cc(C)c(N=C2NCCN2)c(C)c1
Second: Cc1cc(Cl)cc(C)c1N=C1NCCN1
The pKa of the first is higher: 10.8 for the first, 10.2 for the second.

Going from `Clc1cccc(N=C2NCCN2)c1Cl` to `Clc1ccccc1N=C1NCCN1`, the pKa rises from 8.55 to 9.15.

Compared with `Cc1cc(Cl)ccc1N=C1NCCN1`, `Cc1ccc(N=C2NCCN2)c(C)c1` is higher in pKa: 9.99 for the first, 10.6 for the second.

First: Brc1ncc[nH]1
Second: Clc1ncc[nH]1
The pKa of the first is higher: 3.79 for the first, 3.55 for the second.

Going from `Cn1ccnc1Br` to `Cn1ccnc1N`, the pKa rises from 3.82 to 8.54.

First: Cc1cc(Br)cc(C)c1N=C1NCCN1
Second: Cc1cc(C)c(N=C2NCCN2)c(Cl)c1
The pKa of the first is higher: 10.2 for the first, 9.59 for the second.

Compared with `Cn1ccnc1` [1-METHYLIMIDAZOLE], `Cn1ccnc1F` is lower in pKa: 7.12 for the first, 2.3 for the second.

Going from `Brc1cc(Br)c(N=C2NCCN2)c(Br)c1` to `Brc1cccc(Br)c1N=C1NCCN1`, the pKa rises from 7.46 to 7.8.

Compared with `Nc1ncc[nH]1`, `Cc1ncc[nH]1` is lower in pKa: 8.46 for the first, 7.86 for the second.

Compared with `Clc1ccc(N=C2NCCN2)c(Cl)c1`, `Clc1ccc(Cl)c(N=C2NCCN2)c1` is lower in pKa: 8.73 for the first, 8.5 for the second.

Compared with `Cc1cc(Cl)cc(Cl)c1N=C1NCCN1`, `Clc1cc(Cl)c(N=C2NCCN2)c(Cl)c1` is lower in pKa: 9.03 for the first, 7.75 for the second.

`Fc1cccc(F)c1N=C1NCCN1` and `Fc1cccc(Cl)c1N=C1NCCN1` are within 0.2 log units of each other in pKa: 8.18 for the first, 8.01 for the second.

Going from `Cc1ccccc1N=C1NCCN1` to `CCc1ncc[nH]1`, the pKa falls from 10.2 to 7.73.

Going from `Cn1ccnc1[N+](=O)[O-]` to `O=[N+]([O-])c1ncc[nH]1` [AZOMYCIN], the pKa falls from -0.48 to -0.81.
